The experiment deals with Adenosine receptor A2a (Rattus norvegicus, UniProt P30543).

Bounds are passed on as bounds.

Sequence of Adenosine receptor A2a (P30543 whole entry): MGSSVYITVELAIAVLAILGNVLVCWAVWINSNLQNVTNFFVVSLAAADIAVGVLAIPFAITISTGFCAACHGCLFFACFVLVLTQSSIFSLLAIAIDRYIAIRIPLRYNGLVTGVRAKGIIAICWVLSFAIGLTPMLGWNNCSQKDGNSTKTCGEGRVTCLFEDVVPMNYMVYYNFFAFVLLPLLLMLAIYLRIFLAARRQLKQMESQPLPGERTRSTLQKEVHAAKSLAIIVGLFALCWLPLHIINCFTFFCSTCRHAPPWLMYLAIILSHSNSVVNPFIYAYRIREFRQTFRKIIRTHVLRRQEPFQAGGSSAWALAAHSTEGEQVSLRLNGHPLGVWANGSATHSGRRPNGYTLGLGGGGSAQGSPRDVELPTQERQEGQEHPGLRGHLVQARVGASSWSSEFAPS

Regarding `CCn1c(=O)c2c(nc(/C=C/c3cccc(Cl)c3)n2CC)n(CC)c1=O` [(E)-8-(3-Chlorostyryl)-1,3,7-triethylxanthine (7a)], the inhibitory constant (Ki) was more than 1000 nM.

On to `Cn1c(=O)c2c(nc(COc3ccccc3)n2C)n(C)c1=O`, for which the inhibitory constant (Ki) was found to be 137 nM.

`CCn1c(/C=C/c2ccc(Cl)cc2)nc2c1c(=O)n(C)c(=O)n2C` [(E)-8-(4-Chlorostyryl)-1,3-dimethyl-7-ethylxanthine (5b)] came in with a Ki of 95.3 nM.

With `CCn1c(=O)c2c(nc(/C=C/c3ccc(Br)cc3)n2C)n(CC)c1=O` [(E)-8-(4-Bromostyryl)-1,3-diethyl-7-methylxanthine (6e)], the inhibition constant (Ki) came out at 28.9 nM.

On to `Cn1c(=O)c2c(nc(/C=C/c3ccc(Cl)c(Cl)c3)n2C)n(C)c1=O` [(E)-8-(3,4-Dichlorostyryl)caffeine (4b)], for which the affinity corresponds to a Ki of 44.8 nM.

Consider `CCn1c(/C=C/c2cccc(C(F)(F)F)c2)nc2c1c(=O)n(C)c(=O)n2C` [(E)-8-[3-(Trifluoromethyl)styryl]-1,3-dimethyl-7-ethylxanthine (5f)], for which the Ki came out at 93.8 nM.

With `Cn1c(=O)c2c(nc(/C=C/c3cccc(C(F)(F)F)c3)n2C)n(C)c1=O`, the Ki amounted to 125 nM.

Regarding `CCn1c(=O)c2c(nc(/C=C/c3cccc(Cl)c3)n2C)n(CC)c1=O` [(E)-8-(3-Chlorostyryl)-1,3-diethyl-7-methylxanthine (6a)], the affinity corresponds to a Ki of 24.3 nM.

As for `CCn1c(/C=C/c2ccc(Cl)c(Cl)c2)nc2c1c(=O)n(C)c(=O)n2C` [(E)-8-(3,4-Dichlorostyryl)-1,3-dimethyl-7-ethylxanthine (5c)], affinity was put at a Ki of 32.9 nM.

Consider `CCn1c(=O)c2c(nc(/C=C/c3ccc(Br)cc3)n2CC)n(CC)c1=O` [(E)-8-(4-Bromostyryl)-1,3,7-triethylxanthine (7e)], for which the Ki was determined as 83 nM.

In the case of `Cn1c(=O)c2c(nc(CCCc3ccccc3)n2C)n(C)c1=O` [8-(3-Phenylpropyl)-1,3,7-trimethylxanthine (9a)], the inhibition constant (Ki) was more than 1000 nM.

`CCn1c(=O)c2c(nc(/C=C/c3cccc(C(F)(F)F)c3)n2CC)n(CC)c1=O` [(E)-8-[3-(Trifluoromethyl)styryl]-1,3,7-triethylxanthine (7f)] gave a Ki of more than 1000 nM.

Compound `CCn1c(=O)c2c(nc(/C=C/c3ccc(Cl)cc3)n2CC)n(CC)c1=O` [(E)-8-(4-Chlorostyryl)-1,3,7-triethylxanthine (7b)] displayed an inhibition constant (Ki) of more than 1000 nM.

Consider `CCn1c(CCCc2ccccc2)nc2c1c(=O)n(C)c(=O)n2C` [8-(3-Phenylpropyl)-1,3-dimethyl-7-ethylxanthine (9b)], for which the inhibition constant (Ki) is more than 1000 nM.

As for `CCn1c(=O)c2c(nc(/C=C/c3ccc(Cl)c(Cl)c3)n2CC)n(CC)c1=O` [(E)-8-(3,4-Dichlorostyryl)-1,3,7-triethylxanthine (7c)], affinity was put at a Ki of 428 nM.

The compound `CCn1c(=O)c2c(nc(/C=C/c3cccc(C(F)(F)F)c3)n2C)n(CC)c1=O` [(E)-8-[3-(Trifluoromethyl)styryl]-1,3-diethyl-7-methylxanthine (6f)] gave an inhibitory constant (Ki) of 11.9 nM.

`CCn1c(=O)c2c(nc(/C=C/c3cccc(Br)c3)n2CC)n(CC)c1=O` [(E)-8-(3-Bromostyryl)-1,3,7-triethylxanthine (7d)] yielded a Ki of 161 nM.

Consider `Cn1c(=O)c2c(nc(/C=C/c3ccc(Br)cc3)n2C)n(C)c1=O` [(E)-8-(4-Bromostyryl)-1,3,7-trimethylxanthine (4d)], for which the affinity corresponds to a Ki of 127 nM.

In the case of `Cn1c(=O)c2c(nc(/C=C/c3ccc(Cl)cc3)n2C)n(C)c1=O`, the Ki was 169 nM. This Ki and that of the compound before are within 1.5-fold of each other.

In the case of `CCn1c(=O)c2c(nc(COc3ccccc3)n2CC)n(CC)c1=O` [8-Phenoxymethyl-1,3,7-triethylxanthine (8d)], the Ki was more than 1000 nM.

In the case of `CCn1c(=O)c2c(nc(CCCc3ccccc3)n2C)n(CC)c1=O` [8-(3-Phenylpropyl)-1,3-diethyl-7-methylxanthine (9c)], the Ki is more than 1000 nM.

Take `CCn1c(=O)c2c(nc(/C=C/c3cccc(Br)c3)n2C)n(CC)c1=O` [(E)-8-(3-Bromostyryl)-1,3-diethyl-7-methylxanthine (6d)]: the inhibitory constant (Ki) is 17.2 nM. In other words, the double-digit nanomolar range.

`CCn1c(COc2ccccc2)nc2c1c(=O)n(C)c(=O)n2C` [8-Phenoxymethyl-1,3-dimethyl-7-ethylxantine (8b)]: the Ki was more than 1000 nM.

With `Cn1c(=O)c2c(nc(/C=C/c3cccc(Br)c3)n2C)n(C)c1=O` [(E)-8-(3-Bromostyryl)-1,3,7-trimethylxanthine (4c)], affinity was put at a Ki of 28.4 nM.

Compound `CCn1c(=O)c2c(nc(CCCc3ccccc3)n2CC)n(CC)c1=O` [8-(3-Phenylpropyl)-1,3,7-triethylxanthine (9d)] displayed an inhibition constant Ki of more than 1000 nM.

The compound `CCn1c(/C=C/c2ccc(Br)cc2)nc2c1c(=O)n(C)c(=O)n2C` [(E)-8-(4-Bromostyryl)-1,3-dimethyl-7-ethylxanthine (5e)] showed a Ki of 546 nM.

For `CCn1c(/C=C/c2cccc(Cl)c2)nc2c1c(=O)n(C)c(=O)n2C` [(E)-8-(3-Chlorostyryl)-1,3-dimethyl-7-ethylxanthine (5a)], affinity was put at a Ki of 421 nM. This Ki and that of the compound before are within 1.5-fold of each other.

On to `CCn1c(=O)c2c(nc(COc3ccccc3)n2C)n(CC)c1=O` [8-Phenoxymethyl-1,3-diethyl-7-methylxanthine (8c)], for which the Ki was more than 1000 nM.

On to `CCn1c(/C=C/c2cccc(Br)c2)nc2c1c(=O)n(C)c(=O)n2C` [(E)-8-(3-Bromostyryl)-1,3-dimethyl-7-ethylxanthine (5d)], for which the affinity, expressed as Ki, was 58.2 nM.

The values are drawn from BindingDB's records for doi:10.1016/j.bioorg.2013.06.006 (North-West University, Private Bag X6001, Potchefstroom …, 2013).
